Test results published in PMC11357256, “Selectivity Screening and Structure–Cytotoxic Activity Observations of Selected Oleanolic Acid (OA)-Type Saponins from the Amaranthaceae Family on a Wiade Panel of Human Cancer Cell Lines” (Molecules, 2024).

Key:
[1] = tested on: HT29; assay: MTT cell viability assay, HT29 colorectal adenocarcinoma cells; assay type: cell-based; conditions: Homo sapiens, HT-29
Excerpt: (§1) Cell lines used in the study were grouped as follows: skin panel (melanomas: HTB140, derived from metastatic site: lymph node, ATCC Hs 294 T; malignant A375, ATCC CRL-1619; stage I primary WM793, RRID:CVCL 8787; skin keratinocytes HaCaT); prostate panel (prostate carcinomas: Du145, derived from metastatic site: brain, ATCC HTB-81; grade IV PC3, derived from metastatic site: bone, ATCC CRL-1435, LNCaP, derived from the metastatic site: lymph node, ATCC CRL-1740; prostate epithelial, PNT2, ECACC 95012613); gastrointestinal panel (colorectal adenocarcinomas: Caco2, ATCC HTB-37, HT29, ATCC HTB-38, DLD-1, ATCC CCL-221, HCT116, ATCC CCL-247, and colon epithelial cells CCD 841 CoN, ATCC CRL-1790; hepatocellular carcinoma HepG2, ATCC HB-8065); thyroid panel (follicular thyroid carcinoma FTC133, ECACC 9406090, undifferentiated thyroid carcinoma 8505C, ECACC 94090184, papillary thyroid carcinoma TPC-1, SCC147, normal thyroid follicular epithelial Nthy-ori 3–1, ECACC 90011609); and breast panel (ER-positive breast adenocarcinoma MCF7, ATCC HTB-22; ER-negative breast adenocarcinoma MDA-MB-231, ATCC HTB-26; breast epithelial MCF10A, ATCC CRL-10317). Cells were grown under standard conditions (37 °C, 5% CO2, relative humidity), and culture media (DMEM/F12 for PNT2, WM 793, HT29, PC3, FTC133, 8505 C, MDA-MB-231, TPC-1; DMEM Low Glucose for DU145; DMEM High Glucose for HTB140, A375, HaCaT; MEM with NEAA for Caco2 and MCF7; RPMI1640 with sodium pyruvate for LNCaP; DMEM/F12 with 20 ng/mL epidermal growth factor (EGF), 10 μg/mL insulin, 0.5 μg/mL hydrocortisone, 100 ng/mL cholera toxin) for MCF10A) supplemented with 10% fetal bovine serum (FBS) or 5% donor horse serum for MCF10A, and 1% antibiotics solution (10,000 U penicillin and 10 mg streptomycin/mL) […], as previously described. All cell lines, culture media, and supplements were from Sigma-Aldrich (Germany).
(§2) The cells were seeded in 96-well plates (1.5 × 10^4 cells/well). After 24 h, fresh medium was added, containing the tested compounds (0.5–100 μg/mL) and incubated for 24 or 48 h. Cell viability was determined by MTT assay, according to the manufacturer’s instructions, as described previously. Each experiment was performed in triplicate. The absorbance was measured at 570 nm using a Biotek Synergy microplate reader (BioTek Instruments Inc., Winooski, VT, USA). Cell viability was expressed as a percent of control (untreated cells). Doxorubicin was used as a reference drug.

[2] = tested on: Nthy-ori 3-1; assay: MTT cell viability assay, Nthy-ori 3-1 normal thyroid epithelial cells; assay type: cell-based; conditions: Homo sapiens
Excerpt: as §1, §2

[3] = tested on: CCD 841 CoN; assay: MTT cell viability assay, CCD 841 CoN normal colon epithelial cells; assay type: cell-based; conditions: Homo sapiens
Excerpt: as §1, §2

[4] = tested on: TPC-1; assay: MTT cell viability assay, TPC-1 papillary thyroid carcinoma cells; assay type: cell-based, human; conditions: for IC50: Homo sapiens, TPC1
Excerpt: as §1, §2
(§3) The selectivity index (SI) was calculated from the following formula:SI = IC50 of compound in a normal cell line/IC50 of compound in cancer cell line.IC50, half maximal inhibitory concentration, is a concentration required to kill 50% of the cells.

[5] = tested on: PC3; assay: MTT cell viability assay, PC3 prostate carcinoma cells; assay type: cell-based; conditions: Homo sapiens, PC-3
Excerpt: as §1, §2

[6] = tested on: LNCaP; assay: MTT cell viability assay, LNCaP prostate adenocarcinoma cells; assay type: cell-based; conditions: Homo sapiens
Excerpt: as §1, §2

[7] = tested on: MCF10A; assay: MTT cell viability assay, MCF10A normal breast epithelial cells; assay type: cell-based; conditions: Homo sapiens, MCF-10A
Excerpt: as §1, §2

[8] = tested on: FTC133; assay: MTT cell viability assay, FTC133 follicular thyroid carcinoma cells; assay type: cell-based, human; conditions: for IC50: Homo sapiens, FTC-133
Excerpt: as §1, §2, §3

[9] = tested on: MDA-MB-231; assay: MTT cell viability assay, MDA-MB-231 breast adenocarcinoma cells; assay type: cell-based; conditions: Homo sapiens
Excerpt: as §1, §2

[10] = tested on: Caco-2; assay: MTT cell viability assay, Caco-2 colon cancer cells; assay type: cell-based; conditions: Homo sapiens
Excerpt: as §1, §2

[11] = tested on: 8505C; assay: MTT cell viability assay, 8505C undifferentiated thyroid carcinoma cells; assay type: cell-based, human; conditions: for IC50: Homo sapiens, 8505C; for Selectivity Index (SI): IC50 Nthy-ori 3-1 / IC50 8505C
Excerpt: as §1, §2, §3

[12] = tested on: A375; assay: MTT cell viability assay, A375 malignant melanoma cells; assay type: cell-based, human; conditions: for IC50: Homo sapiens, A-375
Excerpt: as §1, §2, §3

[13] = tested on: DLD-1; assay: MTT cell viability assay, DLD-1 colon cancer cells; assay type: cell-based; conditions: Homo sapiens
Excerpt: as §1, §2

[14] = tested on: WM793; assay: MTT cell viability assay, WM793 primary melanoma cells; assay type: cell-based, human; conditions: for IC50: Homo sapiens
Excerpt: as §1, §2, §3

[15] = tested on: HCT116; assay: MTT cell viability assay, HCT116 colon cancer cells; assay type: cell-based; conditions: Homo sapiens, HCT-116
Excerpt: as §1, §2

[16] = tested on: PNT2; assay: MTT cell viability assay, PNT2 normal prostate epithelial cells; assay type: cell-based; conditions: Homo sapiens
Excerpt: as §1, §2

[17] = tested on: HaCaT; assay: MTT cell viability assay, HaCaT keratinocytes; assay type: cell-based; conditions: Homo sapiens
Excerpt: as §1, §2

[18] = tested on: HepG2; assay: MTT cell viability assay, HepG2 hepatocellular carcinoma cells; assay type: cell-based; conditions: Homo sapiens
Excerpt: as §1, §2

[19] = tested on: Du-145; assay: MTT cell viability assay, Du-145 prostate carcinoma cells; assay type: cell-based; conditions: Homo sapiens
Excerpt: as §1, §2

[20] = tested on: MCF7; assay: MTT cell viability assay, MCF7 breast adenocarcinoma cells; assay type: cell-based; conditions: Homo sapiens
Excerpt: as §1, §2

[21] = tested on: HTB-140; assay: MTT cell viability assay, HTB-140 metastatic melanoma cells; assay type: cell-based, human; conditions: for IC50: Homo sapiens
Excerpt: as §1, §2, §3

Structure (SMILES): CC1(C)CC[C@]2(C(=O)O)CC[C@]3(C)C(=CC[C@@H]4[C@@]5(C)CC[C@H](O)C(C)(C)[C@@H]5CC[C@]43C)[C@@H]2C1 [OA, oleanolic acid]
- IC50 ([1]; HT29, 24 h): > 100 µg/mL
- IC50 ([1]; HT29, 48 h): > 100 µg/mL
- IC50 ([2]; 24 h): 94.4 µg/mL
- IC50 ([2]; 48 h): 71.6 µg/mL
- IC50 ([3]; 24 h): > 100 µg/mL
- IC50 ([3]; 48 h): > 100 µg/mL
- IC50 ([4]; TPC-1, 24 h): 36.6 µg/mL
- IC50 ([4]; TPC-1, 48 h): 30 µg/mL
- Selectivity Index (SI) ([4]; IC50 Nthy-ori 3-1 / IC50 TPC-1, 24 h): 2.6
- Selectivity Index (SI) ([4]; IC50 Nthy-ori 3-1 / IC50 TPC-1, 48 h): 2.4
- IC50 ([5]; PC3, 24 h): > 100 µg/mL
- IC50 ([5]; PC3, 48 h): > 100 µg/mL
- IC50 ([6]; 24 h): > 100 µg/mL
- IC50 ([6]; 48 h): > 100 µg/mL
- IC50 ([7]; 24 h): > 100 µg/mL
- IC50 ([7]; 48 h): > 100 µg/mL
- IC50 ([8]; FTC133, 24 h): 13.5 µg/mL
- IC50 ([8]; FTC133, 48 h): 4.9 µg/mL
- Selectivity Index (SI) ([8]; IC50 Nthy-ori 3-1 / IC50 FTC133, 24 h): 6.99
- Selectivity Index (SI) ([8]; IC50 Nthy-ori 3-1 / IC50 FTC133, 48 h): 14.6
- IC50 ([9]; MDA-MB-231, 24 h): > 100 µg/mL
- IC50 ([9]; MDA-MB-231, 48 h): 38.5 µg/mL
- IC50 ([10]; Caco-2, 24 h): 13 µg/mL
- IC50 ([10]; Caco-2, 48 h): 8.3 µg/mL
- IC50 ([11]; 24 h): 19.5 µg/mL
- IC50 ([11]; 48 h): 11.3 µg/mL
- Selectivity Index (SI) ([11]; 24 h): 4.8
- Selectivity Index (SI) ([11]; 48 h): 6.4
- IC50 ([12]; A375, 24 h): 2.2 µg/mL
- IC50 ([12]; A375, 48 h): 0.9 µg/mL
- Selectivity Index (SI) ([12]; IC50 HaCaT / IC50 A375, 24 h): 5.2
- IC50 ([13]; DLD-1, 24 h): 48.7 µg/mL
- IC50 ([13]; DLD-1, 48 h): 24.5 µg/mL
- IC50 ([14]; WM793, 24 h): 2.8 µg/mL
- IC50 ([14]; WM793, 48 h): 1.2 µg/mL
- Selectivity Index (SI) ([14]; IC50 HaCaT / IC50 WM793, 24 h): 4.0
- Selectivity Index (SI) ([14]; IC50 HaCaT / IC50 WM793, 48 h): 6.0
- IC50 ([15]; HCT116, 24 h): 25.6 µg/mL
- IC50 ([15]; HCT116, 48 h): 18.5 µg/mL
- IC50 ([16]; 24 h): > 100 µg/mL
- IC50 ([16]; 48 h): > 100 µg/mL
- IC50 ([17]; 24 h): 11.2 µg/mL
- IC50 ([17]; 48 h): 7.5 µg/mL
- IC50 ([18]; HepG2, 24 h): 51.5 µg/mL
- IC50 ([18]; HepG2, 48 h): 10.7 µg/mL
- IC50 ([19]; DU-145, 24 h): 23.4 µg/mL
- IC50 ([19]; DU-145, 48 h): 12.2 µg/mL
- IC50 ([20]; MCF7, 24 h): > 100 µg/mL
- IC50 ([20]; MCF7, 48 h): 67 µg/mL
- IC50 ([21]; HTB-140, 24 h): 51.4 µg/mL
- IC50 ([21]; HTB-140, 48 h): 29.5 µg/mL
- Selectivity Index (SI) ([21]; IC50 HaCaT / IC50 HTB-140, 24 h): 0.2
- Selectivity Index (SI) ([21]; IC50 HaCaT / IC50 HTB-140, 48 h): 0.2
